The target in test [1] is T1, Ubiquitin-conjugating enzyme E2 N (Homo sapiens, UniProt P61088).
T1 sequence (P61088 whole entry): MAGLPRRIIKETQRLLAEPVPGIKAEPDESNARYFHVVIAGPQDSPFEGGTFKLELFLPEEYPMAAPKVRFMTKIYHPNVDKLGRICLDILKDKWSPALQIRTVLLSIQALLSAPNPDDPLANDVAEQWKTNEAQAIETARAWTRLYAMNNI
The class given is functional.

In test [2] the target is T1, Ubiquitin-conjugating enzyme E2 N. The test is classed as functional. The source holds these as a separate data set.
A further test addresses Bcl-2-related protein A1 (Mus musculus, UniProt Q07440). The class given is functional.
A further test has as its target T2, Hexokinase-1 (Homo sapiens, UniProt P19367).
T2 sequence (P19367 whole entry): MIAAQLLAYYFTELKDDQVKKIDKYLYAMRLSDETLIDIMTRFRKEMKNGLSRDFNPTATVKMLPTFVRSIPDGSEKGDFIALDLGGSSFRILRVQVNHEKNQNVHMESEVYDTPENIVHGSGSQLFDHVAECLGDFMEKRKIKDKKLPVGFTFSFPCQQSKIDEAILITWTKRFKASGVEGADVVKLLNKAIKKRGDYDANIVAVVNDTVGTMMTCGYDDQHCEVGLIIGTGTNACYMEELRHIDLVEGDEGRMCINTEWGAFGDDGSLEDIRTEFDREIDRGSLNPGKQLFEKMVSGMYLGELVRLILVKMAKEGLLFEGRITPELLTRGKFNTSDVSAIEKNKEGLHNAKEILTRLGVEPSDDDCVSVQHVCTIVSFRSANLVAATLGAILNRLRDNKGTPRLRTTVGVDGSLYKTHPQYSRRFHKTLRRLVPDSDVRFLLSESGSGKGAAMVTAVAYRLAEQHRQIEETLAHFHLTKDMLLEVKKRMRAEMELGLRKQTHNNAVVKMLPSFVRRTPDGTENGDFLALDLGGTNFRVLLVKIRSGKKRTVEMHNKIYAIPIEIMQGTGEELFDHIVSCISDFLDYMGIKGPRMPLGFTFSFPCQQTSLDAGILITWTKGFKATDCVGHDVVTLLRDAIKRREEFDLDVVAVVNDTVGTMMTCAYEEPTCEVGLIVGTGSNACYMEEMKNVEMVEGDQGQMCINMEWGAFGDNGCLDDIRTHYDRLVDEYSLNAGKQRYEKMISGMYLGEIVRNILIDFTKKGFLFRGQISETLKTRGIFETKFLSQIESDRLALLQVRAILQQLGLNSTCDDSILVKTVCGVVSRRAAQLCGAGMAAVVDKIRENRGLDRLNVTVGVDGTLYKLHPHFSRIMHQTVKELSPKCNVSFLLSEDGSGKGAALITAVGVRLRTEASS
In words: hexokinase 1 activators, dose response, selectivity assay for HKDC1 activator project, biochemical (AID 504762). The test is classed as functional.

A further test addresses T3, Hexokinase HKDC1 (Homo sapiens, UniProt Q2TB90).
T3 sequence (Q2TB90 whole entry): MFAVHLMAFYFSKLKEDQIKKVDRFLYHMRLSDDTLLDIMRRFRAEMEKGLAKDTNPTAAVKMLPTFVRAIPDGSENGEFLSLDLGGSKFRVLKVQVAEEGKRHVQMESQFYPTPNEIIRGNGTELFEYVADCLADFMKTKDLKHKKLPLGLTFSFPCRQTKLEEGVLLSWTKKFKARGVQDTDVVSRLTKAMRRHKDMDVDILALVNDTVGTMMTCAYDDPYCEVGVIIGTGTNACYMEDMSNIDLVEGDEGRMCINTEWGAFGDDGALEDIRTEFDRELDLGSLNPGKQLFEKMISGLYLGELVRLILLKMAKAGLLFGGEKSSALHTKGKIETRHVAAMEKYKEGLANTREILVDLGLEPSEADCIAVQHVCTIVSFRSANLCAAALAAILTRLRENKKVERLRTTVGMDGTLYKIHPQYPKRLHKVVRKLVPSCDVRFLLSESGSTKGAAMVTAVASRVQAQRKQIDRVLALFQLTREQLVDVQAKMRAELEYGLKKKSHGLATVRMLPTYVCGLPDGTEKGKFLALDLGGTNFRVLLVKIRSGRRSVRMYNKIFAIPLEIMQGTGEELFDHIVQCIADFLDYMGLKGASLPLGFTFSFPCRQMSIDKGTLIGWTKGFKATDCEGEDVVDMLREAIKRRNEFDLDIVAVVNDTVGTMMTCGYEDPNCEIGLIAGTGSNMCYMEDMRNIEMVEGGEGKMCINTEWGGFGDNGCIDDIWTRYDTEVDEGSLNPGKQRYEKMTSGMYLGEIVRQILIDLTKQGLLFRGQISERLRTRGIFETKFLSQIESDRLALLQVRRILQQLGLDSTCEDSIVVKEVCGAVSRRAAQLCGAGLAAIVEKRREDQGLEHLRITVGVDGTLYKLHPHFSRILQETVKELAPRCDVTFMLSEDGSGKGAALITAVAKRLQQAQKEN
In words: HKDC1 hexokinase activators, dose response, biochemical, W721R variant (AID 504730). The test is classed as functional.

Another test addresses Trypsin (Sus scrofa, UniProt P00761). In words: porcine trypsin inhibitors, dose response, selectivity assay for Rce1 protease inhibitor project, biochemical, quenched peptide fluorescence, cherry-pick (AID 488789).
For test [3], the target named is T4, Cannabinoid receptor 1 (Homo sapiens, UniProt P21554). In words: SAR analysis of agonists of the Cannabinoid Receptor 1 using an Image-Based Assay - Set 2. [Related pubchem assays (depositor defined):AID2013, AID2026]. The test is classed as functional.
T4 sequence (P21554 whole entry, the tested form may be a part): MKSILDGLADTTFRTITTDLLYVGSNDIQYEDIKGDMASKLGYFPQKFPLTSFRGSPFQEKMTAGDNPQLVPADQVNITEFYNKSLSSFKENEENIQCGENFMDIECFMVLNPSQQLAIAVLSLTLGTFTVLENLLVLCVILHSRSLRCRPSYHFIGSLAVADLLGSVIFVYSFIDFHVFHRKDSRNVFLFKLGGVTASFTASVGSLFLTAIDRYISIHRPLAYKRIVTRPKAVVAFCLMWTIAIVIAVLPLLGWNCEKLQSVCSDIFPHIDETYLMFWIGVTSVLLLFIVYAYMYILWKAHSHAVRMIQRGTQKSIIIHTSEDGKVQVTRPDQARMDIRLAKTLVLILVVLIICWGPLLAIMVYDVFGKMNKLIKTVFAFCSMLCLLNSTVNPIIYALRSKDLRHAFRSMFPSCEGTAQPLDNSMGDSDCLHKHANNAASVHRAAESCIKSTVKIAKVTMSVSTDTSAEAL
Test [4] has as its target T5, Fatty acid synthase (Homo sapiens, UniProt P49327). In words: FAS thioesterase domain inhibitors, dose response, biochemical, endpoint fluorescence intensity, uHTS hits (AID 624327).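 Further: fluorescence from hydrolysis of an O-methyl fluorescein acyl ester substrate by the enzyme.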 The class given is functional.
The target of test [5] is T6, G-protein coupled receptor 55 (Homo sapiens, UniProt Q9Y2T6). In words: GPR55 antagonist potency of analogs, SAR follow-up, imaging, U2OS, beta-arrestin-GFP, LPI agonist, set 2 (AID 2820). The class given is functional.
T6 sequence (Q9Y2T6 whole entry): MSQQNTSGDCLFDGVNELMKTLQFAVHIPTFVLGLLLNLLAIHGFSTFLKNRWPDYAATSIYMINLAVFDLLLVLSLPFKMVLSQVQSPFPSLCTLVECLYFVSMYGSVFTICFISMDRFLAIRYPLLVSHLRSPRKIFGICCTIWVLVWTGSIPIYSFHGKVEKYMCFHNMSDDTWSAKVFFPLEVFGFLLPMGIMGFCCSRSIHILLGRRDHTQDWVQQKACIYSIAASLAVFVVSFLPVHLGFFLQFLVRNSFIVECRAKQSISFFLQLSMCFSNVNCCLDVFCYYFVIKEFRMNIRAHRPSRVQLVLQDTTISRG
In the next test the target is T7, Streptokinase A (Streptococcus pyogenes serotype M1, UniProt P10520).
T7 sequence (P10520 whole entry): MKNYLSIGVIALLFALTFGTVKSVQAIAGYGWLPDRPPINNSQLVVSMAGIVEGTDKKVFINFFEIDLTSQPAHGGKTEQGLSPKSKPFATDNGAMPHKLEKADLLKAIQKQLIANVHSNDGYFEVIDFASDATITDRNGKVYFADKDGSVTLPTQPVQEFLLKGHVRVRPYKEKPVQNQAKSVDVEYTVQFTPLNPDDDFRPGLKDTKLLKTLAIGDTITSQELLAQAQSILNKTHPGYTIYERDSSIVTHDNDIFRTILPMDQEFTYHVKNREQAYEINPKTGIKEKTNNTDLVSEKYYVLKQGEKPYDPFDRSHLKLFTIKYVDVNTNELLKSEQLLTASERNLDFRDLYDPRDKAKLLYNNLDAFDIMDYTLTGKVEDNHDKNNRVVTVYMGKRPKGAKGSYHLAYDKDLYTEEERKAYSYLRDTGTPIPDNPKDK
In words: S. pyogenes streptokinase expression inhibitors, potency, dose response, plasminogen activation absorbance, OD405 (AID 1914).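 Further: secreted streptokinase activity via plasminogen activation per viability signal from cell pellet.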 The class given is functional, Streptococcus pyogenes M1 GAS.

Test [6] addresses T8, Cannabinoid receptor 2 (Homo sapiens, UniProt P34972). In words: SAR analysis of antagonists of the Cannabinoid Receptor 2 using an Image-Based Assay. [Related pubchem assays (depositor defined):AID2013, AID2026]. The test is classed as functional.
The target in test [7] is T9, Small ubiquitin-related modifier 1 (Homo sapiens, UniProt P63165). In words: inhibitors of SUMO1 peptide binding, dose response, biochemical, fluorescence polarization, uHTS hits (AID 624382). The class given is functional. To be noted: read-out: IC50_Mean. Background: In fluorescence polarisation assays a small probe gives low polarisation when free and higher when bound to something large.
T9 sequence (P63165 whole entry): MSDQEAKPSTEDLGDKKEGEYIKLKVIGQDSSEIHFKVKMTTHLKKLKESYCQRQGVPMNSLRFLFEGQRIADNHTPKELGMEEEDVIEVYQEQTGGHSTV

In test [8] the target is T8, Cannabinoid receptor 2. In words: SAR analysis of agonists of the Cannabinoid Receptor 2 using an Image-Based Assay. [Related pubchem assays (depositor defined):AID2013, AID2026]. The class given is functional.
The target of test [9] is T6, G-protein coupled receptor 55. Put plainly: GPR55 antagonists blocking LPI-driven arrestin recruitment, primary screen, imaging, U2OS, beta-arrestin-GFP, LPI agonist (AID 2013).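 Further: antagonist potency measured as reduced agonist-driven arrestin aggregation.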 The test is classed as functional.
A further test addresses T10, CAAX prenyl protease 2 (Saccharomyces cerevisiae S288c, UniProt Q03530).
T10 sequence (Q03530 whole entry): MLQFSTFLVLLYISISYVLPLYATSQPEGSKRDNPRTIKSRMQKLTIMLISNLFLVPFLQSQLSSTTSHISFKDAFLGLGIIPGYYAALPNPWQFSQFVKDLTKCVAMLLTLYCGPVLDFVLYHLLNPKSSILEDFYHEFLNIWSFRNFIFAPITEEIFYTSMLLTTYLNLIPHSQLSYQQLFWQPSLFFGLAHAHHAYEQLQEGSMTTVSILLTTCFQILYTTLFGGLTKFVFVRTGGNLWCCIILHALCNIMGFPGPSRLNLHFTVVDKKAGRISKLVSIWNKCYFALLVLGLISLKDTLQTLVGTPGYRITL
The class given is biochemical.

Test [10] concerns the target T5, Fatty acid synthase. In words: FAS thioesterase domain inhibitors, dose response, biochemical, kinetic fluorescence intensity (AID 624326).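 Further: rate of fluorescence rise from hydrolysis of a fluorogenic O-methyl fluorescein ester substrate.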 The class given is functional.
In test [11] the target is T11, G-protein coupled receptor 35 (Homo sapiens, UniProt Q9HC97). In words: SAR analysis of Agonists of the GPR35 Receptor using an Image-Based Assay - Set 2. [Related pubchem assays (depositor defined):AID2013, AID2026]. The class given is functional.
T11 sequence (Q9HC97 whole entry): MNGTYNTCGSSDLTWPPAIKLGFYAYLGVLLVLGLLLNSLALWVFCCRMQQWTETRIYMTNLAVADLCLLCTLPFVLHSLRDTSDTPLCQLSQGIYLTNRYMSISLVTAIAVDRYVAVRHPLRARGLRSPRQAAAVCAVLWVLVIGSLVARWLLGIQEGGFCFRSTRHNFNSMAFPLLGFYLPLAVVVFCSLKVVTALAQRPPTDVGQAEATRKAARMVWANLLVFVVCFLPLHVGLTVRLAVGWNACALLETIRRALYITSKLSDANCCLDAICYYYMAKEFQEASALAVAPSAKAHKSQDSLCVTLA
Test [12] concerns the target T9, Small ubiquitin-related modifier 1. Put plainly: inhibitors of SUMO1 partner interactions, dose response, biochemical, FRET (AID 624383). The test is classed as functional. The following applies: read-out: IC50_Mean.
Another test deals with Streptococcus. In words: Group A Streptococcus viability loss, dose response, counter-screen for streptokinase expression inhibitor project, luminescence, BacTiterGlo (AID 1915).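 Further: potency for reduction of bacterial viability or growth.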 The class given is functional, organism-based. The following applies: read-out: EC50. In general terms: Counterscreens check selectivity or assay interference.
The target in test [13] is T4, Cannabinoid receptor 1. In words: SAR analysis of antagonists of the Cannabinoid Receptor 1 using an Image-Based Assay - Set 2. [Related pubchem assays (depositor defined):AID2013, AID2026]. The test is classed as functional.
For test [14], the target named is T11, G-protein coupled receptor 35. Put plainly: SAR analysis of Antagonists of the GPR35 Receptor using an Image-Based Assay - Set 3. [Related pubchem assays (depositor defined):AID2013, AID2026]. The class given is functional.
For test [15] the target is unchanged. Put plainly: SAR analysis of Antagonists of the GPR35 Receptor using an Image-Based Assay - Set 6. [Related pubchem assays (depositor defined):AID2013, AID2026]. The test is classed as functional.
The target in test [16] is T8, Cannabinoid receptor 2. Put plainly: SAR analysis of agonists of the Cannabinoid Receptor 2 using an Image-Based Assay - Set 3. [Related pubchem assays (depositor defined):AID2013, AID2026]. The test is classed as functional.
Test [17] has as its target T6, G-protein coupled receptor 55. Put plainly: SAR Analysis of Selective Antagonists of GPR55 using an Image-Based Assay - Set 4. [Related pubchem assays (depositor defined):AID2013, AID2026]. The class given is functional.
Test [18] has as its target T8, Cannabinoid receptor 2. Put plainly: SAR analysis of antagonists of the Cannabinoid Receptor 2 using an Image-Based Assay - Set 3. [Related pubchem assays (depositor defined):AID2013, AID2026]. The class given is functional.
Test [19] deals with T11, G-protein coupled receptor 35. Put plainly: SAR analysis of Agonists of the GPR35 Receptor using an Image-Based Assay - Set 4. [Related pubchem assays (depositor defined):AID2013, AID2026]. The test is classed as functional.
The target of test [20] is T4, Cannabinoid receptor 1. In words: SAR analysis of agonists of the Cannabinoid Receptor 1 using an Image-Based Assay - Set 4. [Related pubchem assays (depositor defined):AID2013, AID2026]. The class given is functional.
Test [21] addresses T4, Cannabinoid receptor 1. Put plainly: SAR analysis of antagonists of the Cannabinoid Receptor 1 using an Image-Based Assay - Set 4. [Related pubchem assays (depositor defined):AID2013, AID2026]. The class given is functional.

Calls of active or inactive are those of the source.

T8 sequence (P34972 whole entry): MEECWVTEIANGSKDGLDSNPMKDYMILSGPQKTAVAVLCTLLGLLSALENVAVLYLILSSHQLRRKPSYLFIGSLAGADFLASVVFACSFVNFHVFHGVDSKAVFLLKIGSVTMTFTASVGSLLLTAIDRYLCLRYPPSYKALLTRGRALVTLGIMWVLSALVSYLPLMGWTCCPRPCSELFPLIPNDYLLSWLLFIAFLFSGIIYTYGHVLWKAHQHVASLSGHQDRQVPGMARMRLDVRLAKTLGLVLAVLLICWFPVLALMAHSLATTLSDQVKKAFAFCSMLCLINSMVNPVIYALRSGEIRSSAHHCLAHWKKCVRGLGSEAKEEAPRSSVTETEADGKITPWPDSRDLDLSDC
T5 sequence (P49327 whole entry, the tested form may be a part): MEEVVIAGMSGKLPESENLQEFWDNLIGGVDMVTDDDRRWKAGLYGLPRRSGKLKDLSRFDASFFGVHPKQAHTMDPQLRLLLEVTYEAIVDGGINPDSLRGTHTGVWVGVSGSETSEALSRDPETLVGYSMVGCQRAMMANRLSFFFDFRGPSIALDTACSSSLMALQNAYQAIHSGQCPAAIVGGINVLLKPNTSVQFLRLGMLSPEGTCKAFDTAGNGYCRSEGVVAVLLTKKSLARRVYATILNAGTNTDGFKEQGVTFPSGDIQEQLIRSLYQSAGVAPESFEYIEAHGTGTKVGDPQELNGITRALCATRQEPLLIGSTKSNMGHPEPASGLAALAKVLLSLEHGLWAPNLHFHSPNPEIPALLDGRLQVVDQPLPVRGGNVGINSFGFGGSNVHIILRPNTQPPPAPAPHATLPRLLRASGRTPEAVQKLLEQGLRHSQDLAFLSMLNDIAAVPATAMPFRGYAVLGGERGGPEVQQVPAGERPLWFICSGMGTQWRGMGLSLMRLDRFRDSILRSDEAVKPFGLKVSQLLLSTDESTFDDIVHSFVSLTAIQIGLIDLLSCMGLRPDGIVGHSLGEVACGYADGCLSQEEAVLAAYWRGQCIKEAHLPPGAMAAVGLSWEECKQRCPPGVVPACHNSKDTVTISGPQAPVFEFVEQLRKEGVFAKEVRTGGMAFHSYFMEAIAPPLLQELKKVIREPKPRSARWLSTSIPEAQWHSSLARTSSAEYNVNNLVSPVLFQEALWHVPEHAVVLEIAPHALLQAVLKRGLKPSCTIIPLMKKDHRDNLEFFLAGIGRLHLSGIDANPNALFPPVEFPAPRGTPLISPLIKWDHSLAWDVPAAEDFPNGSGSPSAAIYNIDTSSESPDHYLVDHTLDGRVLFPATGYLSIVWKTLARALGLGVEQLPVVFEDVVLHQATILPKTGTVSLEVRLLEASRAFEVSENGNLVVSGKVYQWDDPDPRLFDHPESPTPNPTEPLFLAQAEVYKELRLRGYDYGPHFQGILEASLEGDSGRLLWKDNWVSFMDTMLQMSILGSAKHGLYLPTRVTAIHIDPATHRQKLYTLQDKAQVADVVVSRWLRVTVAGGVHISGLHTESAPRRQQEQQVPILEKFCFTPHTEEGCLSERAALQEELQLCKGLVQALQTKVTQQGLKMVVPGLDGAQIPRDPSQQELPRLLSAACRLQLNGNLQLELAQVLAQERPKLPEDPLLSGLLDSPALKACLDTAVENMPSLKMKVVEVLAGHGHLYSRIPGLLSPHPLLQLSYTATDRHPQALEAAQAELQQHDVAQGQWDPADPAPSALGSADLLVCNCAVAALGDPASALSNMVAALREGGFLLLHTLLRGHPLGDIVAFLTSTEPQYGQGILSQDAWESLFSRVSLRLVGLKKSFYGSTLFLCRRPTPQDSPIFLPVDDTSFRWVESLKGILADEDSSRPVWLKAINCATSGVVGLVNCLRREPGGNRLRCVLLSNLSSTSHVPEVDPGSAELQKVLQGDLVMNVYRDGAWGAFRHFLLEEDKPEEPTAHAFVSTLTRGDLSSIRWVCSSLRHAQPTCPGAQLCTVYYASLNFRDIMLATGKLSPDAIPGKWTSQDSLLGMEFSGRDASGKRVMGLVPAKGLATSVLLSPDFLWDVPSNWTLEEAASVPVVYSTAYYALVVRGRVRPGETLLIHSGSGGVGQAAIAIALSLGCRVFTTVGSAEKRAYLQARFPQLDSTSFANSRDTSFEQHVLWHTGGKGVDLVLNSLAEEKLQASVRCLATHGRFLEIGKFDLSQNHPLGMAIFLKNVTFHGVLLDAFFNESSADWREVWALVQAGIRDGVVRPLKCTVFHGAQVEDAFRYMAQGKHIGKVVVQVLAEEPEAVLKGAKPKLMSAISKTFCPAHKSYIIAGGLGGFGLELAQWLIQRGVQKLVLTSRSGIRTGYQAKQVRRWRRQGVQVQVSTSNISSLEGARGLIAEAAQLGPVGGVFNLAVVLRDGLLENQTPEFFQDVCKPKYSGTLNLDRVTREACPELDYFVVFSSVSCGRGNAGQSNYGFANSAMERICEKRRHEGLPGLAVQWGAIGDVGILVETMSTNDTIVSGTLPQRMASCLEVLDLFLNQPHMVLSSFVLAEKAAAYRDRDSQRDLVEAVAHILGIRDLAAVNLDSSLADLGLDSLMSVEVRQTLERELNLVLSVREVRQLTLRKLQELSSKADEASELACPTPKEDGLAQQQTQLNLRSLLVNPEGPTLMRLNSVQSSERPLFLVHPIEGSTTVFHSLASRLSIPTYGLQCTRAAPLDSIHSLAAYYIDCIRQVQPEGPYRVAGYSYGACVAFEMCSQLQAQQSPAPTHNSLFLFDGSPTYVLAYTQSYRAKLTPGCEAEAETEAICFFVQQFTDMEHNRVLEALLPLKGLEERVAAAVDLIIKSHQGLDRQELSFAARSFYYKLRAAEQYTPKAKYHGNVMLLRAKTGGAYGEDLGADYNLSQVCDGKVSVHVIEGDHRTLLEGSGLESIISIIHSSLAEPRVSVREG
Bcl-2-related protein A1, sequence (Q07440 whole entry): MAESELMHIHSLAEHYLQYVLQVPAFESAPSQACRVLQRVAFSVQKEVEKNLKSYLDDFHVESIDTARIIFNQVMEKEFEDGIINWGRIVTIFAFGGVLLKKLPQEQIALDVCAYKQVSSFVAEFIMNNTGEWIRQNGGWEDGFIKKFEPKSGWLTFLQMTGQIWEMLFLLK
Trypsin, sequence (P00761 whole entry): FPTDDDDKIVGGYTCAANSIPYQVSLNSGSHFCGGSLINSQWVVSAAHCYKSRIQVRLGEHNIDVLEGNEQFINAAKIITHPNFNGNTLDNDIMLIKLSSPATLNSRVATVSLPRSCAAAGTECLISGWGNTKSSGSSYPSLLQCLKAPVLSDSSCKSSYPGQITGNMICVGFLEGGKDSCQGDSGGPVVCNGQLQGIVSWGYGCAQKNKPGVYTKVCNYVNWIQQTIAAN

For `CCCCN(C(=O)c1ccco1)c1nnc(-c2cc(OC)c(OC)c(OC)c2)s1`, the IC50 is 10.4 µM (active) in test [1], 9.79 µM (active) in test [2] and > 20 µM (inactive) at Bcl-2-related protein A1.

In general, EC50 refers to the concentration giving half of the maximal effect. `O=S(=O)(NC1c2cccc3cccc(c23)C1N1CCN(CCO)CC1)c1ccccc1` (stereo not drawn): the EC50 on Hexokinase-1 is 24 µM (inactive); at Hexokinase HKDC1, 18.1 µM (active).

Usually AC50 stands for the concentration giving half of the maximal activity seen. As for `CC(C)(C)OC(=O)N1CCC(c2cc(O)n3ncc(C(=O)Nc4ccc(F)c(Cl)c4)c3n2)CC1`, the figures for the AC50 at Trypsin and on CAAX prenyl protease 2 were 77.2 µM (active) and 17.8 µM (active), respectively. Besides, the EC50 is > 32 µM (inactive) at Cannabinoid receptor 1 [3]; > 150 µM (not active) at Streptokinase A; > 32 µM (inactive) at Cannabinoid receptor 2 [8]; 5.23 µM (active) in [11]; > 150 µM (not active) in the test on Streptococcus. In addition, the IC50 was 8.24 µM (active) on Fatty acid synthase [4]; 0.948 µM (active) in test [5]; > 32 µM (inactive) at Cannabinoid receptor 2 [6]; > 66.6 µM (inactive) in test [7]; 1.41 µM (active) in test [9]; 5.64 µM (active) at Fatty acid synthase [10]. For the same compound, the IC50 in [12] is 9.68 µM (active); on Cannabinoid receptor 1 [13], 10.5 µM (inactive); in test [14] it was 25.4 µM (inactive).

For the compound `Cc1nc(N2CCN(C(=O)C3CCCO3)CC2)c2c3c(sc2n1)CCCC3` (stereo not drawn), the IC50 (in test [15]; in [17]; on Cannabinoid receptor 2 [18]; at Cannabinoid receptor 1 [21]) was > 32 µM (inactive) in each case. Also, the EC50 (at Cannabinoid receptor 2 [16]; in test [19]; on Cannabinoid receptor 1 [20]) was > 32 µM (inactive) in each case.
